What was measured:
CDK2/Cyclin E1 = CDK2/Cyclin E1 (Homo sapiens, UniProt P24941); assay: CDK2/Cyclin E1 Biochemical Assay (TR-FRET), 0.060 mM ATP; conditions: 0.15 μM Rb (Ser780)-biotin substrate, pH7.0, 60 min preincubation, 120 min reaction, room temperature
Procedure, shortened: (§1)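 TR-FRET assay with 0.15 μM Rb (Ser780)-biotin substrate and 0-10 μM compound in 50 mM HEPES pH7.0, 50 mM MgCl2, 1 mM DTT. ATP was 0.060 mM for CDK2/Cyclin E1 and 0.015 mM for CDK1/Cyclin B1. Kinase was preincubated with compound 60 min, reacted 120 min at room temperature, and IC50 was fitted (four-parameter) from the 665/620 nm ratio.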

CDK1/Cyclin B1 = CDK1/Cyclin B1 (Homo sapiens, UniProt P06493); assay: CDK1/Cyclin B1 Biochemical Assay (TR-FRET), 0.015 mM ATP; conditions: 0.15 μM Rb (Ser780)-biotin substrate, pH7.0, 60 min preincubation, 120 min reaction, room temperature
Chain of CDK1/Cyclin B1 (P06493 whole entry): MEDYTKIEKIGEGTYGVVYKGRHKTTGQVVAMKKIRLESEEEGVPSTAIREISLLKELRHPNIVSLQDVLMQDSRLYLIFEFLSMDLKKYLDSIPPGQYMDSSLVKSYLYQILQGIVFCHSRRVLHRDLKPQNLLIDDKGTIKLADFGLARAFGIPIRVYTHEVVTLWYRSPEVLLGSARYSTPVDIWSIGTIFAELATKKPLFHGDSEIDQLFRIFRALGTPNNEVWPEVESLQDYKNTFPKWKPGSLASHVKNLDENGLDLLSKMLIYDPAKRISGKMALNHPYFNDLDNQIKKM
Chain of CDK1/Cyclin B1 (P14635 whole entry partner): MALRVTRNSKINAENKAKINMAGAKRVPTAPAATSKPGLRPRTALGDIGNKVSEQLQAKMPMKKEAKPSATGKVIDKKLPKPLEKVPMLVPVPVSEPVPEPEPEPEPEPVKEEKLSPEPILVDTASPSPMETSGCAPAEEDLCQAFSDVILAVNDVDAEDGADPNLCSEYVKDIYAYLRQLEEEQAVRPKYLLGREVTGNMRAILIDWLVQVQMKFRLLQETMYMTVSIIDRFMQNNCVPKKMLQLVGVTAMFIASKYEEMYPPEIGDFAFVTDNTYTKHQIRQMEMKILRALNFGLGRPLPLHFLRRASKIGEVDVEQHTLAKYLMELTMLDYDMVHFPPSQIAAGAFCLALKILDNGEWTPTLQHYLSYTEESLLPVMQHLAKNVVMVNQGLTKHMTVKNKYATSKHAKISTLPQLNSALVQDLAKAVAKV
Procedure, shortened: as §1

SMILES	IC50 (CDK2/Cyclin E1) [nM]	IC50 (CDK1/Cyclin B1) [nM]
CC1(NC(=O)O[C@H]2CC[C@@H](c3cc(Nc4ccc5c(c4)CS(=O)(=O)N5)n[nH]3)C2)CCOC1 (relative stereo) [Example 392, cis-3-(3-((2,2-dioxido-1,3-dihydrobenzo[c]isothiazol-5-yl)amino)-1H-pyrazol-5-yl)cyclopentyl(3-methyltetrahydrofuran-3-yl)carbamate]	1.1	10
CCCNC(=O)O[C@H]1CC[C@@H](c2cc(Nc3ccc4c(c3F)C(C)(C)NS4(=O)=O)n[nH]2)C1 (relative stereo) [Example 58, cis-3-(3-((4-fluoro-3,3-dimethyl-1,1-dioxido-2,3-dihydrobenzo[d]isothiazol-5-yl)amino)-1H-pyrazol-5-yl)cyclopentyl propylcarbamate]	93	694
O=C(NC1COC1)O[C@H]1CC[C@@H](c2cc(Nc3ccc4c(c3F)CNS4(=O)=O)n[nH]2)C1 (relative stereo) [Example 149, cis-3-(3-((4-fluoro-1,1-dioxido-2,3-dihydrobenzo[d]isothiazol-5-yl)amino)-1H-pyrazol-5-yl)cyclopentyl oxetan-3-ylcarbamate]	42	666
CC1(NC(=O)O[C@H]2CC[C@@H](c3cc(Nc4ccc5c(c4)CCS(=O)(=O)N5)n[nH]3)C2)CC1 (racemic) [Example 249, cis-3-(3-((2,2-dioxido-3,4-dihydro-1H-benzo[c][1,2]thiazin-6-yl)amino)-1H-pyrazol-5-yl)cyclopentyl(1-methylcyclopropyl)carbamate]	2.1	29
CC(C)NC(=O)O[C@H]1CC[C@@H](c2cc(Nc3c(F)cc4c(c3F)CNS4(=O)=O)n[nH]2)C1 (relative stereo) [Example 30, cis-3-(3-((4,6-difluoro-1,1-dioxido-2,3-dihydrobenzo[d]isothiazol-5-yl)amino)-1H-pyrazol-5-yl)cyclopentyl isopropylcarbamate]	7.2	544
CC(C)NC(=O)O[C@H]1CC[C@@H](c2cc(Nc3ccc4c(c3F)CN(CC(F)(F)F)S4(=O)=O)n[nH]2)C1 (relative stereo) [Example 66, cis-3-(3-((4-fluoro-1,1-dioxido-2-(2,2,2-trifluoroethyl)-2,3-dihydrobenzo[d]isothiazol-5-yl)amino)-1H-pyrazol-5-yl)cyclopentyl isopropylcarbamate]	7.3	412
CC[C@H](C)NC(=O)O[C@H]1CC[C@@H](c2cc(Nc3ccc4c(c3F)CS(=O)(=O)N4C3COC3)n[nH]2)C1 (racemic) [Example 261, cis-3-(3-((4-fluoro-1-(oxetan-3-yl)-2,2-dioxido-1,3-dihydrobenzo[c]isothiazol-5-yl)amino)-1H-pyrazol-5-yl)cyclopentyl((S)-sec-butyl)carbamate]	1.3	49
CC(C)NC(=O)O[C@H]1CC[C@@H](c2cc(Nc3ccc4c(c3F)CN(CC3CNC3)S4(=O)=O)n[nH]2)C1 (relative stereo) [Example 105, cis-3-(3-((2-(azetidin-3-ylmethyl)-4-fluoro-1,1-dioxido-2,3-dihydrobenzo[d]isothiazol-5-yl)amino)-1H-pyrazol-5-yl)cyclopentyl isopropylcarbamate]	8.4	689
CC(C)NC(=O)O[C@H]1CC[C@@H](c2cc(Nc3ccc4c(c3F)CN(C3CCN(Cc5ccccc5)CC3)S4(=O)=O)n[nH]2)C1 (relative stereo) [Example 63, cis-3-(3-((2-(1-benzylpiperidin-4-yl)-4-fluoro-1,1-dioxido-2,3-dihydrobenzo[d]isothiazol-5-yl)amino)-1H-pyrazol-5-yl)cyclopentyl isopropylcarbamate]	23	1110
CC(C)NC(=O)O[C@H]1CC[C@@H](c2cc(Nc3cc(F)c4c(c3)S(=O)(=O)NC4)n[nH]2)C1 (relative stereo) [Example 179, cis-3-(3-((4-fluoro-1,1-dioxido-2,3-dihydrobenzo[d]isothiazol-6-yl)amino)-1H-pyrazol-5-yl)cyclopentyl isopropylcarbamate]	0.3	5.5
COCC(C)(C)NC(=O)O[C@H]1CC[C@@H](c2cc(Nc3ccc4c(c3F)CS(=O)(=O)N4CCO)n[nH]2)C1 (relative stereo) [Example 394, cis-3-(3-((4-fluoro-1-(2-hydroxyethyl)-2,2-dioxido-1,3-dihydrobenzo[c]isothiazol-5-yl)amino)-1H-pyrazol-5-yl)cyclopentyl(1-methoxy-2-methylpropan-2-yl)carbamate]	1.1	45
CC(C)NC(=O)O[C@H]1CC[C@@H](c2cc(Nc3ccc4c(c3F)CS(=O)(=O)N4CC(C)(C)O)n[nH]2)C1 (racemic) [Example 254, cis-3-(3-((4-fluoro-1-(2-hydroxy-2-methylpropyl)-2,2-dioxido-1,3-dihydrobenzo[c]isothiazol-5-yl)amino)-1H-pyrazol-5-yl)cyclopentyl isopropylcarbamate]	10	249
CC(=O)N1CC(CN2Cc3c(ccc(Nc4cc([C@@H]5CC[C@H](OC(=O)NC(C)C)C5)[nH]n4)c3F)S2(=O)=O)C1 (relative stereo) [Example 107, cis-3-(3-((2-((1-acetylazetidin-3-yl)methyl)-4-fluoro-1,1-dioxido-2,3-dihydrobenzo[d]isothiazol-5-yl)amino)-1H-pyrazol-5-yl)cyclopentyl isopropylcarbamate]	9.6	532
CC(C)NC(=O)O[C@H]1CC[C@@H](c2cc(Nc3ccc4c(c3F)CN(C3CCC(=O)N(C)C3)S4(=O)=O)n[nH]2)C1 (relative stereo) [Example 83, cis-3-(3-((4-fluoro-2-(1-methyl-6-oxopiperidin-3-yl)-1,1-dioxido-2,3-dihydrobenzo[d]isothiazol-5-yl)amino)-1H-pyrazol-5-yl)cyclopentyl isopropylcarbamate]	15	565
CN1c2ccc(Nc3cc([C@@H]4CC[C@H](OC(=O)NCC5COC5)C4)[nH]n3)cc2CS1(=O)=O (relative stereo) [Example 237, cis-3-(3-((1-methyl-2,2-dioxido-1,3-dihydrobenzo[c]isothiazol-5-yl)amino)-1H-pyrazol-5-yl)cyclopentyl(oxetan-3-ylmethyl)carbamate]	46	435
CC(C)NC(=O)O[C@H]1CC[C@@H](c2cc(Nc3ccc4c(c3CO)CNS4(=O)=O)n[nH]2)C1 (relative stereo) [Example 345, cis-3-(3-((4-(hydroxymethyl)-1,1-dioxido-2,3-dihydrobenzo[d]isothiazol-5-yl)amino)-1H-pyrazol-5-yl)cyclopentyl isopropylcarbamate]	64	1730
CC1(NC(=O)O[C@H]2CC[C@@H](c3cc(Nc4ccc5c(c4)CS(=O)(=O)N5)n[nH]3)C2)CCOCC1 (relative stereo) [Example 398, cis-3-(3-((2,2-dioxido-1,3-dihydrobenzo[c]isothiazol-5-yl)amino)-1H-pyrazol-5-yl)cyclopentyl(4-methyltetrahydro-2H-pyran-4-yl)carbamate]	4.9	53
CC[C@H](C)NC(=O)O[C@H]1C[C@@H](c2cc(Nc3cc4c(cc3F)S(=O)(=O)NC4)n[nH]2)C1 [Example 410, (1s,3R)-3-(3-((6-fluoro-1,1-dioxido-2,3-dihydrobenzo[d]isothiazol-5-yl)amino)-1H-pyrazol-5-yl)cyclobutyl((S)-sec-butyl)carbamate]	27	884

Continued, values first:

IC50 (CDK2/Cyclin E1) [nM]	IC50 (CDK1/Cyclin B1) [nM]	SMILES
1.9	78	CN1c2ccc(Nc3cc([C@@H]4CC[C@H](OC(=O)NC5(C)CCOC5)C4)[nH]n3)c(F)c2CS1(=O)=O (single isomer, unassigned) [Example 349c, cis-3-(3-((4-fluoro-1-methyl-2,2-dioxido-1,3-dihydrobenzo[c]isothiazol-5-yl)amino)-1H-pyrazol-5-yl)cyclopentyl(3-methyltetrahydrofuran-3-yl)carbamate]
18	717	CC(C)(C)NC(=O)O[C@@H]1CC[C@H](c2cc(Nc3cc4c(cc3F)NS(=O)(=O)C4)n[nH]2)C1 [Example 404a]
14	395	CCCNC(=O)O[C@H]1CC[C@@H](c2cc(Nc3ccc4c(c3F)CN(C3CC3)S4(=O)=O)n[nH]2)C1 (single isomer, unassigned) [Example 118a, cis-3-(3-((2-cyclopropyl-4-fluoro-1,1-dioxido-2,3-dihydrobenzo[d]isothiazol-5-yl)amino)-1H-pyrazol-5-yl)cyclopentyl propylcarbamate]
2	28	CC(C)NC(=O)O[C@H]1CC[C@@H](c2cc(Nc3ccc4c(c3)NS(=O)(=O)C4)n[nH]2)C1 (stereo in doubt) [Example 303b, cis-3-(3-((2,2-dioxido-1,3-dihydrobenzo[c]isothiazol-6-yl)amino)-1H-pyrazol-5-yl)cyclopentyl isopropylcarbamate]
1.9	367	CN1c2ccc(Nc3cc([C@@H]4CC[C@H](OC(=O)NC5(C)COC5)C4)[nH]n3)c(F)c2CS1(=O)=O (single isomer, unassigned) [Example 332a, cis-3-(3-((4-fluoro-1-methyl-2,2-dioxido-1,3-dihydrobenzo[c]isothiazol-5-yl)amino)-1H-pyrazol-5-yl)cyclopentyl(3-methyloxetan-3-yl)carbamate]
1.8	131	CN1c2ccc(Nc3cc([C@@H]4CC[C@H](OC(=O)NC5(C)CCOC5)C4)[nH]n3)c(F)c2CS1(=O)=O (single isomer, unassigned) [Example 349a, cis-3-(3-((4-fluoro-1-methyl-2,2-dioxido-1,3-dihydrobenzo[c]isothiazol-5-yl)amino)-1H-pyrazol-5-yl)cyclopentyl(3-methyltetrahydrofuran-3-yl)carbamate]

From US20260297080A1, “BICYCLIC COMPOUNDS AS CDK INHIBITORS” (BeOne Medicines I GmbH, priority 2022, published 2026)
